From patent US20220324815A1, “2-PHENOXY-PYRIMIDINE DERIVATIVES AS HERBICIDAL COMPOUNDS” (SYNGENTA CROP PROTECTION AG, priority 2019, published 2022)

Experiments:
Format in all cases: in vivo
Conditions in all cases: 250 g/ha unless otherwise stated, evaluated after 13 days, five-point scale
[1] = system: Amaranthus retoflexus (AMARE); experiment: Test 1 glasshouse herbicide test, post-emergence application (Table B1)
Description: (§1) Seeds of a variety of test species are sown in standard soil in pots (Lolium perenne (LOLPE), Solanum nigrum (SOLNI), Amaranthus retoflexus (AMARE), Setaria faberi (SETFA), Echinochloa crus-galli (ECHCG) and Ipomoea hederacea (IPOHE)). After cultivation for one day (pre-emergence) or after 8 days cultivation (post-emergence) under controlled conditions in a glasshouse (at 24/16° C., day/night; 14 hours light; 65% humidity), the plants are sprayed with an aqueous spray solution derived from the formulation of the technical active ingredient in acetone/water (50:50) solution containing 0.5% Tween 20 (polyoxyethelyene sorbitan monolaurate, CAS RN 9005-64-5). Compounds are applied at 250 g/ha unless otherwise stated. The test plants are then grown in a glasshouse under controlled conditions in a glasshouse (at 24/16° C., day/night; 14 hours light; 65% humidity) and watered twice daily. After 13 days for pre and post-emergence, the test is evaluated for the percentage damage caused to the plant. The biological activities (% phytotoxicity) are shown in Tables B1 and B2 below using a five-point scale (5=81 to 100%; 4=61 to 80%; 3=41 to 60%; 2=21 to 40%; 1=0 to 20%).

[2] = system: Ipomoea hederacea (IPOHE); experiment: as above
Description: as §1

Setaria faberi (SETFA) [3] = experiment: as above
Description: as §1

[4] = system: Echinochloa crus-galli (ECHCG); experiment: as above
Description: as §1

[5] = system: Amaranthus retoflexus (AMARE); experiment: Test 1 glasshouse herbicide test, pre-emergence application (Table B2)
Description: as §1

[6] = system: Ipomoea hederacea (IPOHE); experiment: as above
Description: as §1

Setaria faberi (SETFA) [7] = experiment: as above
Description: as §1

[8] = system: Echinochloa crus-galli (ECHCG); experiment: as above
Description: as §1

Q: Which “% phytotoxicity AMARE, post-emergence application” value [1] does the source give for `C#CCSc1ccccc1Oc1ncc(Cl)cn1` [Compound A45] here?
A: The value was 3 (3=41 to 60%).

Q: And the “% phytotoxicity IPOHE, post-emergence application” value [2]?
A: Its value is 1 (1=0 to 20%).

Q: And the “% phytotoxicity SETFA, post-emergence application” value (Setaria faberi (SETFA) [3])?
A: The value was 2 (2=21 to 40%).

Q: And the “% phytotoxicity ECHCG, post-emergence application” value [4]?
A: The value was 3 (3=41 to 60%).

Q: What about the “% phytotoxicity AMARE, pre-emergence application” value [5] of the same compound?
A: The value was 3 (3=41 to 60%).

Q: And the “% phytotoxicity IPOHE, pre-emergence application” value [6]?
A: The value was 1 (1=0 to 20%).

Q: And the “% phytotoxicity SETFA, pre-emergence application” value (Setaria faberi (SETFA) [7])?
A: Its value is 3 (3=41 to 60%).

Q: And the “% phytotoxicity ECHCG, pre-emergence application” value [8]?
A: Its value is 3 (3=41 to 60%).

Q: For `C#CCS(=O)(=O)c1ccccc1Oc1ncc(Cl)cn1` [Compound A46], which “% phytotoxicity AMARE, post-emergence application” value [1] is on record?
A: The value was 1 (1=0 to 20%).

Q: And the “% phytotoxicity IPOHE, post-emergence application” value [2]?
A: Its value is 1 (1=0 to 20%).

Q: And the “% phytotoxicity SETFA, post-emergence application” value (Setaria faberi (SETFA) [3])?
A: Its value is 1 (1=0 to 20%).

Q: And the “% phytotoxicity ECHCG, post-emergence application” value [4]?
A: Its value is 1 (1=0 to 20%).

Q: What about the “% phytotoxicity AMARE, pre-emergence application” value [5] of the same compound?
A: The value was 1 (1=0 to 20%).

Q: And the “% phytotoxicity IPOHE, pre-emergence application” value [6]?
A: The value was 1 (1=0 to 20%).

Q: And the “% phytotoxicity SETFA, pre-emergence application” value (Setaria faberi (SETFA) [7])?
A: Its value is 1 (1=0 to 20%).

Q: What about the “% phytotoxicity ECHCG, pre-emergence application” value [8] of the same compound?
A: Its value is 1 (1=0 to 20%).

Q: `C=CCS(=O)(=O)c1ccccc1Oc1ncc(Cl)cn1` [Compound A48] was tested. Which “% phytotoxicity AMARE, post-emergence application” value [1] did it give?
A: The value was 2 (2=21 to 40%).

Q: And the “% phytotoxicity IPOHE, post-emergence application” value [2]?
A: Its value is 1 (1=0 to 20%).

Q: What about the “% phytotoxicity SETFA, post-emergence application” value (Setaria faberi (SETFA) [3]) of the same compound?
A: Its value is 1 (1=0 to 20%).

Q: And the “% phytotoxicity ECHCG, post-emergence application” value [4]?
A: The value was 1 (1=0 to 20%).

Q: And the “% phytotoxicity AMARE, pre-emergence application” value [5]?
A: Its value is 1 (1=0 to 20%).

Q: What about the “% phytotoxicity IPOHE, pre-emergence application” value [6] of the same compound?
A: Its value is 1 (1=0 to 20%).

Q: And the “% phytotoxicity SETFA, pre-emergence application” value (Setaria faberi (SETFA) [7])?
A: Its value is 1 (1=0 to 20%).

Q: And the “% phytotoxicity ECHCG, pre-emergence application” value [8]?
A: Its value is 1 (1=0 to 20%).

Q: What does the source list for `CCCSc1ccccc1Oc1ncc(Cl)cn1` [Compound A49]?
A: % phytotoxicity AMARE, post-emergence application [1]: 4 (4=61 to 80%); % phytotoxicity IPOHE, post-emergence application [2]: 4 (4=61 to 80%); % phytotoxicity SETFA, post-emergence application (Setaria faberi (SETFA) [3]): 4 (4=61 to 80%); % phytotoxicity ECHCG, post-emergence application [4]: 4 (4=61 to 80%); % phytotoxicity AMARE, pre-emergence application [5]: 5 (5=81 to 100%); % phytotoxicity IPOHE, pre-emergence application [6]: 3 (3=41 to 60%); % phytotoxicity SETFA, pre-emergence application (Setaria faberi (SETFA) [7]): 5 (5=81 to 100%); % phytotoxicity ECHCG, pre-emergence application [8]: 5 (5=81 to 100%)

Q: With `CCCS(=O)(=O)c1ccccc1Oc1ncc(Cl)cn1` [Compound A50] as the compound, how does the “% phytotoxicity AMARE, post-emergence application” value [1] read?
A: The value was 4 (4=61 to 80%).

Q: And the “% phytotoxicity IPOHE, post-emergence application” value [2]?
A: The value was 2 (2=21 to 40%).

Q: And the “% phytotoxicity SETFA, post-emergence application” value (Setaria faberi (SETFA) [3])?
A: The value was 1 (1=0 to 20%).

Q: And the “% phytotoxicity ECHCG, post-emergence application” value [4]?
A: The value was 1 (1=0 to 20%).

Q: And the “% phytotoxicity AMARE, pre-emergence application” value [5]?
A: Its value is 5 (5=81 to 100%).

Q: And the “% phytotoxicity IPOHE, pre-emergence application” value [6]?
A: The value was 2 (2=21 to 40%).

Q: What about the “% phytotoxicity SETFA, pre-emergence application” value (Setaria faberi (SETFA) [7]) of the same compound?
A: Its value is 5 (5=81 to 100%).

Q: And the “% phytotoxicity ECHCG, pre-emergence application” value [8]?
A: The value was 4 (4=61 to 80%).

Q: `O=S(=O)(CC1CC1)c1ccccc1Oc1ncc(Cl)cn1` [Compound A51] was tested. Which “% phytotoxicity AMARE, post-emergence application” value [1] did it give?
A: The value was 3 (3=41 to 60%).

Q: And the “% phytotoxicity IPOHE, post-emergence application” value [2]?
A: Its value is 1 (1=0 to 20%).

Q: What about the “% phytotoxicity SETFA, post-emergence application” value (Setaria faberi (SETFA) [3]) of the same compound?
A: Its value is 1 (1=0 to 20%).

Q: What about the “% phytotoxicity ECHCG, post-emergence application” value [4] of the same compound?
A: Its value is 1 (1=0 to 20%).

Q: And the “% phytotoxicity AMARE, pre-emergence application” value [5]?
A: Its value is 4 (4=61 to 80%).

Q: What about the “% phytotoxicity IPOHE, pre-emergence application” value [6] of the same compound?
A: Its value is 1 (1=0 to 20%).

Q: What about the “% phytotoxicity SETFA, pre-emergence application” value (Setaria faberi (SETFA) [7]) of the same compound?
A: The value was 2 (2=21 to 40%).

Q: And the “% phytotoxicity ECHCG, pre-emergence application” value [8]?
A: The value was 1 (1=0 to 20%).

Q: How did the “% phytotoxicity AMARE, post-emergence application” value [1] turn out when `CC(C)=CCSc1ccccc1Oc1ncc(Cl)cn1` [Compound A52] was run?
A: Its value is 3 (3=41 to 60%).

Q: And the “% phytotoxicity IPOHE, post-emergence application” value [2]?
A: The value was 1 (1=0 to 20%).

Q: What about the “% phytotoxicity SETFA, post-emergence application” value (Setaria faberi (SETFA) [3]) of the same compound?
A: Its value is 3 (3=41 to 60%).

Q: What about the “% phytotoxicity ECHCG, post-emergence application” value [4] of the same compound?
A: The value was 4 (4=61 to 80%).

Q: And the “% phytotoxicity AMARE, pre-emergence application” value [5]?
A: Its value is 1 (1=0 to 20%).

Q: And the “% phytotoxicity IPOHE, pre-emergence application” value [6]?
A: The value was 1 (1=0 to 20%).

Q: What about the “% phytotoxicity SETFA, pre-emergence application” value (Setaria faberi (SETFA) [7]) of the same compound?
A: Its value is 1 (1=0 to 20%).

Q: What about the “% phytotoxicity ECHCG, pre-emergence application” value [8] of the same compound?
A: Its value is 2 (2=21 to 40%).

Q: Which “% phytotoxicity AMARE, post-emergence application” value [1] does the source give for `CCCCCCSc1ccccc1Oc1ncc(Cl)cn1` [Compound A53] here?
A: The value was 4 (4=61 to 80%).

Q: What about the “% phytotoxicity IPOHE, post-emergence application” value [2] of the same compound?
A: Its value is 1 (1=0 to 20%).

Q: What about the “% phytotoxicity SETFA, post-emergence application” value (Setaria faberi (SETFA) [3]) of the same compound?
A: Its value is 1 (1=0 to 20%).

Q: What about the “% phytotoxicity ECHCG, post-emergence application” value [4] of the same compound?
A: Its value is 1 (1=0 to 20%).

Q: And the “% phytotoxicity AMARE, pre-emergence application” value [5]?
A: Its value is 3 (3=41 to 60%).

Q: And the “% phytotoxicity IPOHE, pre-emergence application” value [6]?
A: The value was 1 (1=0 to 20%).

Q: And the “% phytotoxicity SETFA, pre-emergence application” value (Setaria faberi (SETFA) [7])?
A: The value was 3 (3=41 to 60%).

Q: And the “% phytotoxicity ECHCG, pre-emergence application” value [8]?
A: The value was 2 (2=21 to 40%).
